According to patent publication US8168236B2, “Extracts of Polygonum multiflorum thunb., and preparation process and uses of the same” (National Yang-Ming University, priority 2003, dated 2012):

Columns and labels:
[1] = tested on: EGF-stimulated bone marrow cells; experiment: MTT assay, proliferation of EGF-stimulated bone marrow cells; format: cell-based, mouse; conditions: positive control, 50 ng/ml EGF
Procedure: Under sterile condition, C57BL/6j (male, 15-20 g, 4-6 weeks old) were sacrificed, and their femoral bones were injected with DMEM/F12 culture medium (Gibco, N.Y. USA) so as to flush out the bone marrow cells. The collected cells in DMEM/F12 culture medium were then filtered through a sterile No. 53 nylon mesh so as to obtain a single cell suspension, the cell concentration of which was subsequently adjusted to 6×10^5 cells/ml with DMEM/F12 culture medium containing N2 supplement (Sigma, Mo., USA).
The mouse bone marrow cells (1.5×10^5 nucleated cells/well) as prepared in the above Procedure (I) were placed into 96-well culture plates and incubated in 200 μl of a defined medium (DMEM/F12 plus N2 supplement) supplemented with EGF (at a final concentration of 10 ng/ml). After incubation at 37° C. for 24 hrs, different concentrations (0.01 μg/ml, […], 1 μg/ml, 10 μg/ml and 100 μg/ml) of the extracts of Polygonum multiflorum Thunb. root obtained in Example 1 were added into the wells of the culture plates, respectively. […]
Subsequently, MTT assay was performed. […] The culture plates were allowed to stand for 14 hours and then subjected to absorbance detection using a microplate reader at O.D. 550 nm-O.D. 690 nm. […] The obtained experimental data were analyzed by Student's t-test.

[2] = tested on: dexamethasone-stimulated mouse primary bone marrow cell cultures; experiment: Alkaline phosphatase colorimetry, dexamethasone-stimulated osteogenic cell maturation (test A); format: cell-based; conditions: positive control, 0.1 nM estrogen
Procedure: Under sterile condition, C57BL/6j (male, 15-20 g, 4-6 weeks old) were sacrificed, and their femoral bones were injected with alpha-minimal essential medium (α-MEM) culture medium (Gibco, N.Y., USA) so as to flush out the bone marrow cells. The collected cells in α-MEM culture medium were then filtered through a sterile No. 53 nylon mesh so as to obtain a single cell suspension.
The mouse bone marrow cells (1.5×10^5 nucleated cells/well) as prepared in the above Procedure (I) were placed into 96-well culture plates and incubated in α-MEM supplemented with 15% FCS, 10 μM dexamethazone, 50 μg/ml ascorbic acid, and 10 mM sodium, β-glycerophosphate. After incubation at 37° C. for 48 hrs, extracts of Polygonum multiflorum Thunb. root with different concentrations (0.01 μg/ml, 0.1 μg/ml, 1 μg/ml, 10 μg/ml, 100 μg/ml and 1000 μg/ml) were added into the wells of the culture plates, respectively. […]
The alkaline phosphatase (AP) colorimetry (Aubin, J. E. et al. (1995), Bone, 17: 77S-83S; Sabokbar, A. et al. (1994), Bone & Mineral, 27: 57-67) was conducted as follows: The culture medium in each well of the culture plates was removed, and the remaining cells were added with 120 μl of 0.01% SDS and incubated in a 37° C. incubator for 10 minutes. […] After a reaction time of 10-15 minutes at 37° C., the culture plates were subjected to absorbance detection at O.D. 405 nm.

[3] = tested on: mGM-CSF-stimulated mouse primary bone marrow cultures; experiment: MTT assay, mGM-CSF-stimulated proliferation of bone marrow cultures; format: cell-based; conditions: positive control, mGM-CSF 20 ng/ml
Procedure: Subsequently, MTT assay was performed. Each well of the culture plates was added with a MTT solution (5 mg/ml dissolved in 1×PBS) to a final concentration of 1 mg/ml. Four hours later, each well of the culture plates was added with a MTT lysis buffer (20% sodium dodecyl sulfate (SDS) in 50% dimethylformamide (DMF)/50% H2O) in an amount of 150 μl/well. The culture plates were allowed to stand for 14 hours and then subjected to absorbance detection using a microplate reader at O.D. 550 nm-O.D. 690 nm. Each experiment was conducted in duplicate, and n=6 wells for each group. The obtained experimental data were analyzed by Student's t-test.
The mouse bone marrow cells (1.5×10^5 nucleated cells/well) prepared according to the procedures set forth in Procedure (I) of Example 5 were placed into 96-well culture plates and incubated in RPMI supplemented with 5% FCS and mGM-CSF (at a final concentration of 2 ng/ml). After incubation at 37° C. for 24 hrs, extracts of the Polygonum multiflorum Thunb. root with different concentrations (0.1 μg/ml, 1 μg/ml, 10 μg/ml and 100 μg/ml) were added into the wells of the culture plates, respectively. The positive control group was treated with 20 ng/ml mGM-CSF, and the negative control group was treated with 2 ng/ml mGM-CSF. […]

For “EGF: epidermal growth factor, 50 ng/ml positive control”, the Proliferation index [1] was 1.26 (±0.13).

Work on estrogen yielded an AP activity index [2] of 1.28.

B1: mGM-CSF: granulocyte-monocyte colony stimulating factor, 20 ng/ml positive control (protein, UniProt P01587 18-141, looked up)
Granulocyte-macrophage …: APTRSPITVTRPWKHVEAIKEALNLLDDMPVTLNEEVEVVSNEFSFKKLTCVQTRLKIFEQGLRGNFTKLKGALNMTASYYQTYCPPTPETDCETQVTTYADFIDSLKTFLTDIPFECKKPGQK
Work on B1 yielded a Proliferation index [3] of 2.05.
